Calls of active or inactive are those of the source. No rule for the calls is given here.
Test system: CCRIS mutagenicity, Ames/micronucleus/aberration tests
Experiment: CCRIS mutagenicity studies

For `C=O`, the mutagenic call (End Point: IN VITRO CHROMOSOMAL ABERRATIONS, Test System: SYRIAN HAMSTER EMBRYO (SHE) CELLS, Metabolic Activation: NONE) was “active; positive (structural changes)”, the mutagenic call (End Point: In vitro chromosomal aberrations, Test System: Chinese hamster ovary (CHO) cells, Metabolic Activation: None) was “active; positive” and the mutagenic call (End Point: In vitro chromosomal aberrations, Test System: Chinese hamster ovary (CHO) cells, Metabolic Activation: S-9) was “active; positive”. The mutagenic call (End Point: In vivo micronucleus, Test System: Peripheral blood erythrocytes, Species: Rat, Strain/Sex: F344/DuCrl / Male, Route: Inhalation) was “inactive; negative”, the mutagenic call (Test System: AMES SALMONELLA TYPHIMURIUM, Strain/Indicator: TA97, Metabolic Activation: NONE, Method: PREINCUBATION) was “inactive; negative” and the mutagenic call (Test System: AMES SALMONELLA TYPHIMURIUM, Strain/Indicator: TA97, Metabolic Activation: NONE, Method: STANDARD PLATE) was “active; positive”. The mutagenic call (Test System: AMES SALMONELLA TYPHIMURIUM, Strain/Indicator: TA98, Metabolic Activation: RAT, LIVER, S-9, AROCLOR 1254, Method: PREINCUBATION) was “active; positive”, the mutagenic call (Test System: AMES SALMONELLA TYPHIMURIUM, Strain/Indicator: TA98, Metabolic Activation: RAT, LIVER, S-9, AROCLOR 1254, Method: STANDARD PLATE) was “active; positive” and the mutagenic call (Test System: AMES SALMONELLA TYPHIMURIUM, Strain/Indicator: TA100, Metabolic Activation: MOUSE LIVER S-9, AROCLOR 1254, Method: PREINCUBATION) was “active; positive”. The mutagenic call (Test System: AMES SALMONELLA TYPHIMURIUM, Strain/Indicator: TA100, Metabolic Activation: NONE, Method: SUSPENSION) was “active; positive”, the mutagenic call (Test System: AMES SALMONELLA TYPHIMURIUM, Strain/Indicator: TA100, Metabolic Activation: RAT LIVER S-9, AROCLOR 1254, Method: PREINCUBATION) was “active; positive” and the mutagenic call (Test System: AMES SALMONELLA TYPHIMURIUM, Strain/Indicator: TA100, Metabolic Activation: RAT, LIVER, S-9, AROCLOR 1254, Method: STANDARD PLATE) was “active; positive”. For the same compound, the mutagenic call (Test System: AMES SALMONELLA TYPHIMURIUM, Strain/Indicator: TA100, Metabolic Activation: RAT, LIVER, S-9, AROCLOR 1254, Method: SUSPENSION) was “active; positive”, the mutagenic call (Test System: AMES SALMONELLA TYPHIMURIUM, Strain/Indicator: TA100, Metabolic Activation: RAT, LIVER, S-9, AROCLOR, Method: STANDARD PLATE) was “active; positive” and the mutagenic call (Test System: AMES SALMONELLA TYPHIMURIUM, Strain/Indicator: TA102, Metabolic Activation: NONE, Method: FLUCTUATION TEST) was “active; positive”. The mutagenic call (Test System: AMES SALMONELLA TYPHIMURIUM, Strain/Indicator: TA102, Metabolic Activation: NONE, Method: PREINCUBATION) was “active; positive”, the mutagenic call (Test System: AMES SALMONELLA TYPHIMURIUM, Strain/Indicator: TA104, Metabolic Activation: MOUSE LIVER S-9, AROCLOR 1254, Method: PREINCUBATION) was “active; positive” and the mutagenic call (Test System: AMES SALMONELLA TYPHIMURIUM, Strain/Indicator: TA104, Metabolic Activation: NONE, Method: PREINCUBATION) was “active; positive”. The mutagenic call (Test System: AMES SALMONELLA TYPHIMURIUM, Strain/Indicator: TA104, Metabolic Activation: RAT LIVER S-9, AROCLOR 1254, Method: PREINCUBATION) was “active; positive”, the mutagenic call (Test System: AMES SALMONELLA TYPHIMURIUM, Strain/Indicator: TA104, Metabolic Activation: RAT, LIVER, S-9, AROCLOR 1254, Method: PREINCUBATION) was “active; positive” and the mutagenic call (Test System: AMES SALMONELLA TYPHIMURIUM, Strain/Indicator: TA1535, Metabolic Activation: NONE, Method: PREINCUBATION) was “inactive; negative”. For the same compound, the mutagenic call (Test System: AMES SALMONELLA TYPHIMURIUM, Strain/Indicator: TA1535, Metabolic Activation: NONE, Method: STANDARD PLATE) was “inactive; negative”, the mutagenic call (Test System: AMES SALMONELLA TYPHIMURIUM, Strain/Indicator: TA1535, Metabolic Activation: RAT, LIVER, S-9, AROCLOR 1254, Method: PREINCUBATION) was “inactive; negative” and the mutagenic call (Test System: AMES SALMONELLA TYPHIMURIUM, Strain/Indicator: TA1535, Metabolic Activation: RAT, LIVER, S-9, AROCLOR 1254, Method: STANDARD PLATE) was “inactive; negative”. For the same compound, the mutagenic call (Test System: AMES SALMONELLA TYPHIMURIUM, Strain/Indicator: TA1537, Metabolic Activation: NONE, Method: PREINCUBATION) was “inactive; negative”, the mutagenic call (Test System: AMES SALMONELLA TYPHIMURIUM, Strain/Indicator: TA1537, Metabolic Activation: RAT, LIVER, S-9, AROCLOR 1254, Method: PREINCUBATION) was “inactive; negative” and the mutagenic call (Test System: AMES SALMONELLA TYPHIMURIUM, Strain/Indicator: TA1537, Metabolic Activation: RAT, LIVER, S-9, AROCLOR 1254, Method: STANDARD PLATE) was “active; positive”. For the same compound, the mutagenic call (Test System: AMES SALMONELLA TYPHIMURIUM, Strain/Indicator: TA1538, Metabolic Activation: NONE, Method: PREINCUBATION) was “inactive; negative”, the mutagenic call (Test System: AMES SALMONELLA TYPHIMURIUM, Strain/Indicator: TA1538, Metabolic Activation: NONE, Method: STANDARD PLATE) was “inactive; negative” and the mutagenic call (Test System: AMES SALMONELLA TYPHIMURIUM, Strain/Indicator: TA2638, Metabolic Activation: NONE, Method: STANDARD PLATE) was “active; positive”. The mutagenic call (Test System: AMES SALMONELLA TYPHIMURIUM, Strain/Indicator: TA2638A, Metabolic Activation: NONE, Method: PREINCUBATION) was “active; positive”, the mutagenic call (Test System: AMES SALMONELLA TYPHIMURIUM, Strain/Indicator: UTH8413, Metabolic Activation: NONE, Method: STANDARD PLATE) was “inactive; negative” and the mutagenic call (Test System: AMES SALMONELLA TYPHIMURIUM, Strain/Indicator: UTH8413, Metabolic Activation: RAT, LIVER, S-9, AROCLOR, Method: STANDARD PLATE) was “inactive; negative”. The mutagenic call (Test System: AMES SALMONELLA TYPHIMURIUM, Strain/Indicator: UTH8414, Metabolic Activation: NONE, Method: STANDARD PLATE) was “inactive; negative”, the mutagenic call (Test System: AMES SALMONELLA TYPHIMURIUM, Strain/Indicator: UTH8414, Metabolic Activation: RAT, LIVER, S-9, AROCLOR, Method: STANDARD PLATE) was “inactive; negative” and the mutagenic call (Test System: CHINESE HAMSTER OVARY, Strain/Indicator: CHO-K1 (HPRT)/6-THIOGUANINE, Metabolic Activation: NONE, Method: SUSPENSION) was “active; positive”. For the same compound, the mutagenic call (Test System: CHINESE HAMSTER OVARY, Strain/Indicator: CHO-K1 (HPRT)/6-THIOGUANINE, Metabolic Activation: NONE, Method: SUSPENSION/PLATE) was “inactive; negative”, the mutagenic call (Test System: CHINESE HAMSTER V-79, Strain/Indicator: V-79/6-THIOGUANINE, Metabolic Activation: NONE) was “active; positive” and the mutagenic call (Test System: E. COLI, Strain/Indicator: 016 POLA, Metabolic Activation: NONE, Method: PREINCUBATION) was “inactive; negative”. The mutagenic call (Test System: E. COLI, Strain/Indicator: H/R30R, Metabolic Activation: NONE, Method: PREINCUBATION) was “active; positive”, the mutagenic call (Test System: E. COLI, Strain/Indicator: HS30R UVRA, Metabolic Activation: NONE, Method: PREINCUBATION) was “active; positive” and the mutagenic call (Test System: E. COLI, Strain/Indicator: K12(AB1157) (WILD TYPE), Metabolic Activation: NONE, Method: SUSPENSION/PLATE) was “active; positive”. For the same compound, the mutagenic call (Test System: E. COLI, Strain/Indicator: K12(AB1886) (UVRA), Metabolic Activation: NONE, Method: SUSPENSION/PLATE) was “inactive; negative”, the mutagenic call (Test System: E. COLI, Strain/Indicator: K12(AB2480) (RECA/UVRA), Metabolic Activation: NONE, Method: SUSPENSION/PLATE) was “inactive; negative” and the mutagenic call (Test System: E. COLI, Strain/Indicator: NG30 RECA, Metabolic Activation: NONE, Method: PREINCUBATION) was “inactive; negative”. The mutagenic call (Test System: E. COLI, Strain/Indicator: WP2 (PKM101), Metabolic Activation: NONE, Method: PREINCUBATION) was “active; positive”, the mutagenic call (Test System: E. COLI, Strain/Indicator: WP2, Metabolic Activation: NONE, Method: PREINCUBATION) was “active; positive” and the mutagenic call (Test System: E. COLI, Strain/Indicator: WP2 UVRA (PKM101), Metabolic Activation: NONE, Method: PREINCUBATION) was “active; positive”. The mutagenic call (Test System: E. COLI, Strain/Indicator: WP2 UVRA (PKM101), Metabolic Activation: NONE, Method: STANDARD PLATE) was “active; positive”, the mutagenic call (Test System: E. COLI, Strain/Indicator: WP2 UVRA, Metabolic Activation: NONE, Method: PREINCUBATION) was “active; positive” and the mutagenic call (Test System: MOUSE LYMPHOMA, Strain/Indicator: L5178Y (TK+/TK-), Metabolic Activation: NONE, Method: SUSPENSION/PLATE) was “active; positive”.
